Experimental data reported in patent US11318141B2, “Methods and compositions related to STK1-targeted small molecules as antibiotic resistance breakers” (Ohio State Innovation Foundation, priority 2017, dated 2022).
≈ marks a conversion by molar mass, not a printed value. Where “and” joins values, the source holds several entries; their conditions need not be identical. Identical values can stand only once. Like-named read-outs stand apart in the source and are kept apart here.

Key:
[1] = tested on: S. aureus MW2 wild-type; test: Serial passage at suboptimal dose (10 generations), stk1 PCR and DNA sequencing; assay type: cell-based, Staphylococcus aureus; conditions: in the presence of 50 μM Inh2-B1
Description: (§1) Since the STK1 is not essential for bacterial survival and its absence results in retardation of growth, an end-point bactericidal assay was done, employing the Checkerboard titration method followed by a time-to-kill assay using the broth dilution method. The 96-well plate-based checkerboard titration assays were performed using the fixed number of CFUs of MW2 strain, and the survival of the bacteria was measured on solid agar plates as an end-point result. […] The cut-off value to designate clinical isolates of S. aureus for antibiotics, including Ceftriaxone (TX) and Cefotaxime (CT) as susceptible, is less than 4 μg/ml (i.e., <4.8 μM of TX, and <7 μM of CT). […] CFU counts of MW2-WT grown in the presence of various concentrations of Inh2-B1 were examined over a period of 16 h. […] Similarly, it was also determined CFU counts of MW2-WT and MW2ΔSTK1 strains each grown in the absence or the presence of 50 μM of Inh2-B1 and 1.5 μM Ceftriaxone (1 μg/ml) or […] Cefotaxime (1 μg/ml) for 16 h employing the broth dilution method. […] Further, to address whether MW2 or STK1 could become refractory to a potential combined therapy, the S. aureus MW2 wild-type strain was grown in the presence of suboptimal dose of Inh2-B1 alone and combination with Ceftriaxone and Cefotaxime (25 μM Inh2-B1 and 3 μM of Ceftriaxone or 3 μM Cefotaxime) for consecutive 10 generations.

[2] = tested on: S. aureus MW2ΔSTP1 mutant; test: E-test antibiotic susceptibility (MIC), Muller-Hinton agar; assay type: cell-based; conditions: Staphylococcus aureus
[3] = tested on: S. aureus MW2 wild-type; test: Checkerboard titration end-point bactericidal assay (MBC), Muller-Hinton agar; assay type: cell-based, Staphylococcus aureus; conditions: for MBC: Staphylococcus aureus, MW2WILDTYPE
Description: FIGS. 15A-15B show checkerboard assays for determining bactericidal assay. Serial two-fold dilutions of 2 mM of Inh2-B1 (MW=411.58 g/mol) and (A) 3 mM ceftriaxone (MW=669.7 g/mol) were made in two separate 96-well plates in vertical (B1-B12 to H1-H2 wells) and horizontal (A2-H2 to A12-H12 wells) directions respectively. Serially diluted Inh2-B1 (100 μL) in the individual well was then mixed with the 100 μL serially diluted ceftriaxone present in the corresponding wells. The resulting various combinations of Inh2-B1 (starting from 1 mM) and ceftriaxone (starting from 1.5 mM) or cefotaxime (2.1 mM) as well as serially diluted one Inh2-B1 (B1 to H1) and ceftriaxone (A2-A12) or cefotaxime (A2-A12) were then incorporated in Muller-Hinton mini agar plates (2 mL). The agar plates were then seeded and diluted S. aureus MW2-wild-type culture equivalent to approximately 23±3 CFU. This checkerboard assay was used to determine the ideal combination of lowest concentration of Inh2-B1 and ceftriaxone that kills 99.9% of the wild-type MW2.
as §1
(§2) Subsequently, the susceptibility of S. aureus MW2 strain to Ceftriaxone, Cefotaxime, Inh2, and Inh2-B1 was confirmed by the CLSI recommended serial dilution method using Muller Hinton broth. Minimum bactericidal activity (MBC) was measured using Muller-Hinton agar. Changes in the MBC of Ceftriaxone/Cefotaxime in the presence of serially diluted Inh2-B1 was determined in two steps. Initial screening was carried out using the Checkerboard method using Muller-Hinton agar (FIG. 15). […] Subsequent time to kill assays were carried out using 50 μM Inh2-B1 and Ceftriaxone. Cefotaxime (1 μg/ml) in a final volume of 250 μl using a sterile 96-well (U-bottom) microtiter plate over a period of 16 h at 37° C. under constant rotation (120 rpm). Optical density and corresponding CFU counts were measured at every two-hour interval up to 8 hours with a final overnight reading at the end of incubation period. CFU counts were measured using appropriate dilution of 10 μl of properly mixed samples at each time interval.

[4] = tested on: S. aureus MW2-WT; test: Time-to-kill assay (OD and CFU counts over 16 h), broth dilution; assay type: cell-based, Staphylococcus aureus; conditions: only 50 μM Inh2-B1, only 1.5 μM Ceftriaxone (1 μg/ml) or only 3 μM Cefotaxime (1 μg/ml), 16 h
Description: (§3) FIGS. 4A-F show. […] Optical Density and corresponding Colony forming units of (C and D) MW2-WT and (E and F) MW2ΔSTK1 cultures in the presence or absence 50 μM Inh2-B1, 1.51 μM (1 μg/ml) Ceftriaxone, 2.125 μM (1 μg/ml) Cefotaxime, and combination of Inh2-B1 plus Ceftriaxone, and Inh2-B1 plus Cefotaxime. The experiments were carried out as described in the Materials and Method section using Muller-Hinton broth and seeded with 4×10^6 CFUs of S. aureus MW2-Wild type or MW2ΔSTK1 strains per well. Each data points represent Mean±S.D. P values of significance (**=<0.01, ***=<0.001) were determined using the t-test with Welch's corrections. NS—Not significant.
as §2, with “interval. All experiments were performed in three biological replicates and the statistical analysis of the results obtained at each time point was carried out by the non-parametric t-test with Welch's correction using GraphPad Prism 6 software.” for “interval.”

[5] = tested on: S. aureus MW2ΔSTK1; test: as above; assay type: cell-based, Staphylococcus aureus; conditions: in the presence of Ceftriaxone (1 μg/ml)
Description: as §3
as §2, with “interval. All experiments were performed in three biological replicates and the statistical analysis of the results obtained at each time point was carried out by the non-parametric t-test with Welch's correction using GraphPad Prism 6 software.” for “interval.”

[6] = tested on: S. aureus MW2-WT; test: microbe, parasite or virus in culture; assay type: cell-based, Staphylococcus aureus; conditions: Staphylococcus aureus, MW2WT
[7] = tested on: S. aureus MW2ΔSTK1 mutant; test: E-test antibiotic susceptibility (MIC), Muller-Hinton agar; assay type: cell-based; conditions: Staphylococcus aureus
[8] = tested on: cell wall hydrolase genes in S. aureus MW2-WT; test: qRT-PCR mRNA expression of cell wall hydrolase genes; assay type: cell-based, Staphylococcus aureus; conditions: treated MW2-WT vs untreated
Description: The late log phase-grown S. aureus strains MW2 wild-type, and isogenic ΔSTK1 and ΔSTP1 mutant strains, as well as S. aureus MW2 strain treated with 25 μM Inh2-B1 for 4 h, were subjected to lysostaphin treatment to obtain whole cell lysate. Total RNA from the resulting lysate was first extracted by TRIZOL™ (Invitrogen/Thermo) and treated with RNase-free DNaseI. High-quality total RNA (RIN>7.0, and 260/280 and 260/230 ratios >1.8) was then extracted by using RNA purification kit (Norgen, Canada) per manufacturer's instructions and confirmed by an Agilent 2100 Bioanalyzer (Agilent Technologies, Palo Alto, Calif.). The first-strand cDNA from the total RNA was generated, and relative mRNA concentration was quantitated using SYBR Green qRT-PCR master mix and specific primers, using a Light Cycler® 480 real-time PCR machine (Table 2). The results obtained for all samples (three biological replicates each in triplicates) were normalized to corresponding values of 16S rRNA. All results including relative fold-changes in the mRNA expression (mutant vs. wild-type or treated vs. nontreated) for individual genes were analyzed using Exor4 software (Roche Applied Science). Changes in expression ratios by more than 2-fold (up- or down-regulation) were considered as significant.

[9] = tested on: S. aureus MW2; test: Broth dilution susceptibility / growth inhibition assay, Muller Hinton broth; assay type: cell-based, Staphylococcus aureus; conditions: Staphylococcus aureus
Description: as §2, with “interval. All experiments were performed in three biological replicates and the statistical analysis of the results obtained at each time point was carried out by the non-parametric t-test with Welch's correction using GraphPad Prism 6 software.” for “interval.”

[10] = tested on: S. pyogenes SP-STK / SP-STKK; test: Solid-phase ATP affinity chromatography, elution of bound kinase by inhibitor, Western blot; assay type: binding; conditions: 50 μM inhibitor
Description: (§4) An overnight culture of S. aureus MW2 strain was centrifuged, and the resulting bacterial pellet was resuspended in lysostaphin digestion buffer (50 mM Tris/HCl buffer, pH 7.5, containing 5 μg/ml DNAse/RNAse and protease inhibitor cocktail) in 1/10 the volume of the original culture volume. The latter was then subjected to lysostaphin treatment (15 U/ml). The lysostaphin digest was sonicated (5 sec pulse at every 10 sec for 10 min at 50% of 130 W, […]), and the debris free whole cell lysate was obtained after centrifugation (10.000×g, 10 min, 4° C.). […] The column was then washed with ten column volumes of binding buffer. Subsequently, the bound proteins were eluted with the 10-column volume of buffer containing 50 μM Inh-2 and Inh2-B1. S. aureus crude lysate, the last fraction of the column washing step, and eluted fractions were resolved by SDS-PAGE and electroblotted onto a PVDF membrane. […] A similar experiment was performed using S. pyogenes whole cell lysates obtained from phage lysin-digested S. pyogenes M1T1 strain using the anti-SP-STK antibody as described previously using to determine the specificity of the inhibitor for S. aureus STK1.

[11] = tested on: S. aureus STK1 / STKK1; test: as above; assay type: binding; conditions: eluted with 50 μM inhibitor, anti-STK1 immunoblot
Description: as §4

[12] = biological target: S. aureus STKK1 (the soluble kinase domain of STK1, 280 aa) (Staphylococcus aureus, UniProt A0ABF7PGK0); test: In vitro kinase assay: inhibition of autophosphorylation of recombinant STKK1 (γ32P-ATP); assay type: biochemical; conditions: after 5 min pre-incubation
S. aureus STKK1 (the soluble kinase domain of STK1, 280 aa), sequence (A0ABF7PGK0 entry or part of it): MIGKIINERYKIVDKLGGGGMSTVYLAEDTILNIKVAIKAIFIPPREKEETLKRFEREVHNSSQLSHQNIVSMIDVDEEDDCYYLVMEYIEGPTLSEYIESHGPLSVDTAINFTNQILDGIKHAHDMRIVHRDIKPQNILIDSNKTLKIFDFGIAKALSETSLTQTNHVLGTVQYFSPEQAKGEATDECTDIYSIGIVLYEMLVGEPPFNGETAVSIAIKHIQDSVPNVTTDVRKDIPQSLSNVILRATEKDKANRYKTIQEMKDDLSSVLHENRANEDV
Description: For the present study, recombinant His-tag-STKK1 was created along with part of the adjacent juxta-membrane domain (1-280 aa) using the pET14b vector system and specific primers (Table-1 and Table-2) as described previously. The recombinant proteins were expressed in BL21 DE3 (pLysS) and purified using Ni^+2-NTA-affinity chromatography, dialyzed against 10 mM Tris/HCl, pH 7.5, and stored as 10% glycerol stock (500 μg/ml) at −20° C. as described previously. In vitro kinase assays were performed using 2 μg STKK1 in the presence of 1 μCi γ^32P-ATP (specific activity 3000 Ci/mMol, PerkinElmer) at 30° C. for 45 min in a final volume of 30 μl phosphorylation buffer (50 mM Tris/HCl, pH7.5, 1 mM dithiothreitol, 5 mM MgCl2, and/or 5 mM MnCl2). The inhibition of autophosphorylation of STKK1 was carried out using this assay in the presence and absence of (50 μM) individual members of the 32 prescreened small molecule compound library. Phosphorylated proteins were separated by SDS-PAGE and subsequently identified by using Coomassie stain and autoradiography. The individual phosphorylated protein bands were then excised and subjected to radioactive counting using beta-scintillation counter for quantitative analysis. Experiments were repeated at least three times for statistical analysis.

[13] = tested on: S. pyogenes SP-STK; test: In vitro autophosphorylation / kinase activity of SP-STK; assay type: biochemical; conditions: at 116 μM

| Compound | bactericidal activity against the passaged strain [1] | MIC [2] [µg/mL] | MBC ([3]; agent alone, MW2, read-out: Minimum bactericidal concentration (MBC)) | MBC ([3]; in the presence of 50 μM of Inh2-B1, read-out: MBC for MW2 in the presence of Inh2-B1) | concentration up to which growth of MW2 was seen ([3]; agent alone, further analysis) [µM] | concentration of wells with ≥1 CFU of wild-type MW2 ([3]; checkerboard, agent alone) [µM] | fold reduction of MBC ([3]; in the presence of 50 μM of Inh2-B1 vs antibiotic alone) [fold] | growth pattern of the wild-type, single agent [4] | growth of MW2ΔSTK1 [5] | MIC [6] [µg/mL] | MIC [7] [µg/mL] | expression of cell wall hydrolase-encoding genes [8] | IC50 ([9]; MW2, read-out: IC50 concentration for MW2) [µM] | MIC ([9]; MW2, read-out: minimum inhibitory concentration) [µM] | elution of SP-STK bound to ATP-column, S. pyogenes whole cell lysate [10] | elution of STK1 bound to ATP-column, whole cell lysate of S. aureus MW2 [11] | IC50 [12] [µM] | inhibition of autophosphorylation of S. pyogenes SP-STK [13] |
| --- | --- | --- | --- | --- | --- | --- | --- | --- | --- | --- | --- | --- | --- | --- | --- | --- | --- | --- |
| CO/N=C(\C(=O)N[C@@H]1C(=O)N2C(C(=O)O)=C(CSc3nc(=O)c(=O)[nH]n3C)CS[C@H]12)c1csc(N)n1 [Ceftriaxone] | remained intact | > 100 | 151 µM and 100 µg/mL | 0.59 µM and 0.39 µg/mL | 125 | ≤ 75.00 | 256 | remained unaltered | reduced significantly | > 100 | 4 (≈ 7.21 µM) | – | – | – | – | – | – | – |
| Cc1ccc(NC(=O)c2sc(=S)n3c2[nH]c(=O)c2ccccc23)c(C)c1 [Inh2, N-(2,4-Dimethylphenyl)-5-oxo-1-thioxo-4,5-dihydro[1,3]thiazolo[3,4-a]quinazoline-3-carboxamide] | – | – | – | – | – | – | – | – | – | – | – | down-regulation of cell wall hydrolase-encoding genes | 12 | 48 | did not elute | presence of STK1 | 24.5 | did not inhibit autophosphorylation |
